How the values were obtained:
[1] = target: human GLK (Homo sapiens (Human), UniProt Q8IVH8); experiment: Kinase activity assay using ADP-Glo method, GLK; assay type: biochemical; conditions: GLK enzyme concentration 8 nM; ATP 20 μM
Description: The IC50 value was assayed by the kinase activity assay using ADP-Glo method to evaluate the inhibitory ability of a test compound on human GLK.
Enzyme buffer conditions: 50 mM Hepes (pH 7.5), 10 mM MgCl2, 1 mM EGTA, 0.01% Brij35, 2 mM DTT.
Preparation of the mixture of kinase and substrate: the concentration of GLK in the reaction solution was 8 nM, the concentration of ATP was […], and the concentration of MBP was 0.05 mg/mL.
(§1) Assay steps: A compound was diluted 4-fold with DMSO in a dilution plate, with a final initial concentration of […] and 10 concentration gradient points. The compound was diluted 50-fold into the kinase reaction buffer, and the mixture was shaken on a shaker for 20 minutes. The kinase was prepared with the enzyme reaction buffer. 2 μL of kinase was added to each well of a reaction plate. 1 μL of the diluted compound in the buffer was added to each well. The plate was sealed with a sealing film, centrifuged at 1000 g for 30 seconds, and placed at room temperature for 10 minutes. The mixed solution of ATP/MBP was prepared with the enzyme reaction buffer. 2 μL of the mixed solution of ATP/MBP was added to the reaction plate. The plate was sealed with a sealing film, and centrifuged at 1000 g for 30 seconds. The mixture in the plate was reacted at room temperature for 60 minutes. 4 μL of ADP-Glo was transferred to the 384 reaction plate, and centrifuged at 1000 rpm/min for 1 min. The plate was incubated at 25° C. for 40 min. 8 μL of detection solution was transferred to the 384 reaction plate, and centrifuged at 1000 rpm/min for 1 min. The plate was incubated at 25° C. for 40 min. The RLU (relative luminescence unit) signal was read with a BMG microplate reader, and the signal intensity was used to characterize the activity of the kinase.
(§2) The kinase activity data were expressed as the comparison of the kinase activity of a group with a test compound and the kinase activity of the blank group (containing only DMSO). The IC50 value was obtained by curve fitting using Prism software (GraphPad7.0).

[2] = In vitro metabolic stability in human liver microsomes; assay type: in vitro ADME; conditions: 1 μM compound, 0.5 mg/mL protein
Description: The in vitro metabolic stability of the compounds of the present disclosure in human was investigated by the metabolic stability in human liver microsomes.
Assay conditions: 1 μM of a compound was incubated with human liver microsomes supplemented with NADPH regeneration system at 37° C. for a certain period of time up to 60 minutes. The concentration of the compound in the resulting sample was assayed by LC-MS/MS method.
Assay procedure: 96-well incubation plates were named T0, T5, T15, T30, T45, T60, Blank60 and NCF60, respectively. The reaction time corresponding to the incubation plates were 0, 5, 15, 30, 45 and 60 minutes, respectively. No test sample or control compound was added to the Blank60 plate, and samples were taken after 60 minutes of incubation. Potassium phosphate buffer was used instead of NADPH regeneration system solution in the NCF60 plate, and the plate was incubated for 60 minutes. All the samples of the time points were from a single well.
5 μL of a test sample or control sample working solution and 100 μL of microsome working solution (the concentration of liver microsome protein was 0.5 mg/mL) were added to the T0, T5, T15, T30, T45, T60 and NCF60 plates, respectively. Only microsome working solution was added to the Blank60 plate. Then, the Blank60, T5, T15, T30, T45 and T60 plates, except TO and NCF60 plates, were placed in a 37° C. water bath, and preincubated for about 10 minutes.
180 μL of stop solution (the stop solution was a solution of tolbutamide (100 ng/mL) in acetonitrile and methanol (95:5, V/V)) was firstly added to the sample of TO plate, and then the NADPH regeneration system working solution was added.
50 μL of potassium phosphate buffer was added to each well of the NCF60 plate, and the plate was incubated for 60 minutes.
After the pre-incubation of Blank60, T5, T15, T30, T45 and T60 plates, 44 μL of NADPH regeneration system working solution was added to each sample well to initiate the reaction. Therefore, for the sample wells containing a test sample or control sample working solution, the final concentration of the reaction was […], the concentration of liver microsomes was 0.5 mg/mL, and the final concentrations of DMSO and acetonitrile in the reaction system were 0.01% (v/v) and 0.99% (v/v), respectively.
After being incubated for an appropriate time (e.g., 5, 15, 30, 45, and 60 min), 180 μL of stop solution was added to each well of the test sample and control sample of Blank60, T5, T15, T30, T45, T60, and NCF60 plates, respectively, to terminate the reaction.
All sample plates were shaken and centrifuged for 10 min. 80 μL of the supernatant of a test sample was taken and diluted into 240 μL of a mixture of acetonitrile and water (1:9, V/V) containing 0.1% formic acid for LC-MS/MS analysis.
By calculating the corresponding time point and the remaining percentage of a compound, the half-life T1/2 and clearance rate CLint(liver) of the compound in human liver microsome metabolism were obtained.

[3] = target: human HPK1 (Homo sapiens (Human), UniProt Q92918); experiment: Kinase activity assay using ADP-Glo method (Method 2); assay type: biochemical; conditions: HPK1 enzyme concentration 0.1 nM; ATP concentration 10 μM
Chain of human HPK1 (Q92918 whole entry): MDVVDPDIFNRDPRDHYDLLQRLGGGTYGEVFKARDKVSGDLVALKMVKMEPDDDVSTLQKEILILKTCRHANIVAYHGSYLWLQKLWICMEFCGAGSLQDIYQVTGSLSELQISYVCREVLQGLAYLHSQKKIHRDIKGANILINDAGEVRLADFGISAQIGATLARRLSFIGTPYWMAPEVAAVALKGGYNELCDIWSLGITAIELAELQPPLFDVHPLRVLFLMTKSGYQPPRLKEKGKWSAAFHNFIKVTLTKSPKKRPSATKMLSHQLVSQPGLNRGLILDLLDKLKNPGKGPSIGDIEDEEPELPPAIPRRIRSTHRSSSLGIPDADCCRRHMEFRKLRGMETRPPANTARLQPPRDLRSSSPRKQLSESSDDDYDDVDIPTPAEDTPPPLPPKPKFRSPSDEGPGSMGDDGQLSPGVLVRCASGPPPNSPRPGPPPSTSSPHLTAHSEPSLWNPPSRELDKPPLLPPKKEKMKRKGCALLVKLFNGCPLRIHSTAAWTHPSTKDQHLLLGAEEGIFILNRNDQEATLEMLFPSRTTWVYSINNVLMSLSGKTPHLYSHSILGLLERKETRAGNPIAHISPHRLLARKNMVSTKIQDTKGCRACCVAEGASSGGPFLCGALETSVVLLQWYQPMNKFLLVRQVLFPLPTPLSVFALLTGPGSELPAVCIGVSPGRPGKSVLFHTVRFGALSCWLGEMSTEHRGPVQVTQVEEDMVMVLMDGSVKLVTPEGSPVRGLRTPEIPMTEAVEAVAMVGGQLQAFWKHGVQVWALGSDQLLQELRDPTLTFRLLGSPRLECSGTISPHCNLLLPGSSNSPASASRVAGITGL
Description: Method 2: The IC50 value was assayed by the kinase activity assay using ADP-Glo method to evaluate the inhibitory ability of a test compound on human HPK1.
Enzyme buffer conditions: 50 mM Hepes (pH 7.5), 10 mM MgCl2, 1 mM EGTA, 0.01% Brij35, 2 mM DTT. […]
as §1, with “4 μL of ADP-Glo was transferred to the 384 reaction plate, and centrifuged at 1000 rpm/min for 1 min.” left out, “8 μL of detection solution was transferred to the 384 reaction plate, and centrifuged at 1000 rpm/min for 1 min.” left out
as §2

Chain of human GLK (Q8IVH8 whole entry): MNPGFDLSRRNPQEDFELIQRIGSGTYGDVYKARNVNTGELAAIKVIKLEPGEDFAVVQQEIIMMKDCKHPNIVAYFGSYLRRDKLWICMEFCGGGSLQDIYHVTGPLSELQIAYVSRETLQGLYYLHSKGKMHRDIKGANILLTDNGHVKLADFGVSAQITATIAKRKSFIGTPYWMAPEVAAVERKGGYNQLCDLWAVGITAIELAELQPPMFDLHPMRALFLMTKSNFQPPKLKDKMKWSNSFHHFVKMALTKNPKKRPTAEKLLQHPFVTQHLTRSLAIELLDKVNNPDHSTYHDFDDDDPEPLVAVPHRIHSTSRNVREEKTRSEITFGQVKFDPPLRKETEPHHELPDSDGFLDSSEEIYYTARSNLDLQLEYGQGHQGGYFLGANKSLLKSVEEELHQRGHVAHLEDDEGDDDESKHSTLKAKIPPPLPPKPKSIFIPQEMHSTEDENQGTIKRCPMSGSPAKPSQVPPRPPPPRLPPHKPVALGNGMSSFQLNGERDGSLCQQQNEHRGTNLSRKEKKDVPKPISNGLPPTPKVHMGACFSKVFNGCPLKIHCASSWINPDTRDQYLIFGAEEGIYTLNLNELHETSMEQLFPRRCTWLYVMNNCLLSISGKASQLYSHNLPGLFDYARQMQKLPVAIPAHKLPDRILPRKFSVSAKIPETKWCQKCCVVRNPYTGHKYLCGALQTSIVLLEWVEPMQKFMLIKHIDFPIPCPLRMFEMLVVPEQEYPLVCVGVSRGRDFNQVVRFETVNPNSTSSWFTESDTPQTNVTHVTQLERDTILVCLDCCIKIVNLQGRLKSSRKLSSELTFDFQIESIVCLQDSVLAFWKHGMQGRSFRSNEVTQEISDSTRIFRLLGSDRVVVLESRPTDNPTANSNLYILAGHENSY

| SMILES | IC50 [1] [nM] | CLint(liver) [2] [mL/min/kg] | T1/2 [2] [min] | IC50 [3] [nM] | CLint scaled at 1 μM [2] [mL/min/kg] | half-life at 1 μM [2] [min] |
| --- | --- | --- | --- | --- | --- | --- |
| Cn1ccc2c(-c3ncc(Nc4ccc5c(n4)OC[C@@H]4COCCN54)c4c3CNC4=O)ccnc21 [Compound 4] | 594 | 35 | 36 | 0.62 | – | – |
| O=C1NCc2c(-c3cnc4cc(F)ccn34)ccc(Nc3ccc4c(n3)OC[C@@H]3COCCN43)c21 [Compound 8] | 154 | – | – | 2 | 37 | 34 |

From patent US20250282798A1, “HETEROARYL-SUBSTITUTED BICYCLIC COMPOUND AND USE THEREOF” (Medshine Discovery Inc., priority 2022, published 2025)
